Measured values: patent publication US6737438B2, “Substituted 1,2,4-trioxanes useful as antimalarial agents and a process for the preparation thereof” (Council of Scientific and Industrial Research, priority 2002, dated 2004)
Where two headings read alike, the source gives them in different places.

What was measured:
[1] = test system: multidrug resistant strain of Plasmodium yoelii Nigeriensis; assay: Antimalarial activity against multidrug resistant P. yoelii in swiss mice; type: in vivo; conditions: for % Suppression on Day 4 / inhibition in vivo at 96 mg/kg: 4 consecutive days (day 0-3), parasitaemia vs vehicle control; for Cured/treated: observed till day 28; for inhibition in vivo at 96 mg/kg / responders at 96 mg/kg: Plasmodium yoelii; for inhibition in vivo at 96 mg/kg: 96 h, read-out: % Suppression on Day 4; for responders at 96 mg/kg: 672 h, observed till day 28, read-out: Cured/treated (converted)

SMILES	% Suppression on Day 4 ([1]; oral, 96 mg/kg) [%]	Cured/treated ([1]; oral, 96 mg/kg)	% Suppression on Day 4 ([1]; i.m., 96 mg/kg) [%]	Cured/treated ([1]; i.m., 96 mg/kg)	also measured
C(=CC1COC(c2ccccc2)OO1)c1ccc(-c2ccccc2)cc1 (centres unmarked)	–	–	–	–	melting point: 92 to 95 °C
Clc1ccc(-c2ccc(C=CC3COC4(CCCC4)OO3)cc2)cc1 (centres unmarked)	–	–	–	–	melting point: 102 to 104 °C
Clc1ccc(-c2ccc(C=CC3COC4(CCCCC4)OO3)cc2)cc1 (centres unmarked)	–	–	–	–	melting point: 96 to 98 °C
C=C(c1ccc(-c2ccc(Br)cc2)cc1)C1COC2(CCC(C(C)(C)CC)CC2)OO1 (centres unmarked) [Trioxane 7fd]	88.39	0/5	–	–	% Suppression on Day 4 ([1]; i.m., 48 mg/kg): 51.09%; Cured/treated ([1]; i.m., 48 mg/kg): 0/5
Brc1ccc(-c2ccc(C=CC3COC4(CCCC4)OO3)cc2)cc1 (centres unmarked) [Trioxane 7fe, 8-[(4′-bromo-[1,1′-biphenyl]-4yl)vinyl]-6,7,10-trioxaspiro (4,5) decane]	–	–	–	–	inhibition in vivo at 96 mg/kg ([1]; oral, 96 mg/kg): 100%; responders at 96 mg/kg ([1]; oral, 96 mg/kg): 60%; inhibition in vivo at 96 mg/kg ([1]; im, i.m., 96 mg/kg): 89.4%; responders at 96 mg/kg ([1]; im, i.m., 96 mg/kg): 0%
C=C(c1ccc(-c2ccc(Br)cc2)cc1)C1COC2(CCC(c3ccccc3)CC2)OO1 (centres unmarked) [Trioxane 7ff]	100	2/5	46.1	0/5	–
C=C(c1ccc(C2CCCC2)cc1)C1COC2(CC3CCC2C3)OO1 (centres unmarked) [Trioxane 8a]	100	5/5	81.23	0/5	–
C=C(c1ccc(C2CCCCC2)cc1)C1COC2(CC3CCC2C3)OO1 (centres unmarked) [Trioxane 8b]	–	–	100	3/5	% Suppression on Day 4 ([1]; oral, 48 mg/kg): 100%; Cured/treated ([1]; oral, 48 mg/kg): 6/6
C=C(c1ccc(C2CCCCCC2)cc1)C1COC2(CC3CCC2C3)OO1 (centres unmarked) [Trioxane 8c]	100	3/5	43.55	0/5	–
C=C(c1ccc(-c2ccccc2)cc1)C1COC2(CC3CCC2C3)OO1 (centres unmarked) [Trioxane 8e]	100	4/4	100	1/4	–
C=C(c1ccc(-c2ccc(Br)cc2)cc1)C1COC2(CC3CCC2C3)OO1 (centres unmarked) [Trioxane 8f]	100	5/5	100	0/5	–
C=C(c1ccc(C2CCCC2)cc1)C1COC2(OO1)C1CC3CC(C1)CC2C3 (centres unmarked) [Trioxane 9a]	100	5/5	81.23	0/5	–
C=C(c1ccc(C2CCCCC2)cc1)C1COC2(OO1)C1CC3CC(C1)CC2C3 (centres unmarked) [Trioxane 9b]	100	5/5	82.16	0/5	–
C=C(c1ccc(C2CCCCCC2)cc1)C1COC2(OO1)C1CC3CC(C1)CC2C3 (centres unmarked) [Trioxane 9c]	100	5/5	74.57	0/5	–
C=C(c1ccc(C2CCCCCCC2)cc1)C1COC2(OO1)C1CC3CC(C1)CC2C3 (centres unmarked) [Trioxane 9d]	100	5/5	60.12	0/5	–
C=C(c1ccc(-c2ccccc2)cc1)C1COC2(OO1)C1CC3CC(C1)CC2C3 (centres unmarked) [Trioxane 9e]	100	6/6	100	0/6	–
C=C(c1ccc(-c2ccc(Br)cc2)cc1)C1COC2(OO1)C1CC3CC(C1)CC2C3 (centres unmarked) [Trioxane 9f]	–	–	92.4	2/5	% Suppression on Day 4 ([1]; oral, 48 mg/kg): 100%; Cured/treated ([1]; oral, 48 mg/kg): 5/5
C=C(c1ccc(-c2ccc(Cl)cc2)cc1)C1COC2(OO1)C1CC3CC(C1)CC2C3 (centres unmarked) [Trioxane 9g]	100	3/5	100	–	–
